Results reported in PubChem BioAssay AID1919007 (Molecular Pharmacology Branch, DTP, NCI, 2023).
Several values for one entry are separate records, joined by “and”; a condition that tells them apart may be missing. Equal entries are not always repeated.

Tested on: A498 complex spheroids with HUVEC/MSC, growth
Assay: Anticancer human tumor A498 cell line growth inhibition [AhR];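 also: seven day exposure starting three days after spheroid seeding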;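 as to viability, T/C: luminescence signal used as a surrogate for viable cells; luminescence viability scaled so 100% equals DMSO vehicle wells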
Conditions: for viability, T/C: stronger effect = lower value; active = viability on the fitted dose curve at most 10% of control; inactive = the rest
Text: Multicellular complex tumor spheroid response to aryl hydrocarbon receptor antagonists in combination with a variety of drugs and investigational agents in selected tumor cell lines
The current study was undertaken to assess response to aryl hydrocarbon receptor antagonists in combination with standard-of-care drugs and investigational agents in solid tumor complex spheroid models. Complex spheroids include a stromal component modeled by human endothelial cells (HUVEC) and fibroblasts modeled by human mesenchymal stem cells (MSCs). The concentration ranges selected for each drug and investigational agent were based upon clinically achievable concentrations if the clinical Cmax of the agent was known.
Compounds. The drugs and investigational agents: BAY 2416964 (NSC825713), GNF351 (NSC835774), CH-223191 (NSC835775), CPI-455 (NSC825282), aza-TdCyd (NSC777586), decitabine (NSC127716), belinostat (NSC758774), entinostat (NSC756642), pevonedistat (NSC761192), tazemetostat (NSC777109), talazoparib (NSC765396), olaparib (NSC753686), selinexor (NSC780203), nedisertib (M3814, NSC802822), bortezomib (NSC756655), venetoclax (NSC766270), doxorubicin (NSC123127), elimusertib (BAY189344, NSC800525), ceralasertib (AZD6738, NSC777638), TAK-243 (NSC785004), alisertib (NSC759677), etoposide (NSC141540), topotecan (NSC609699), eribulin (NSC707389), gemcitabine (NSC613327), carboplatin (NSC241240), cisplatin (NSC119875), and SN-38 (NSC673596) were obtained from the National Cancer Institute (NCI) Developmental Therapeutics Program Chemical Repository (32). The FDA-approved anticancer drug set is available from the Developmental Therapeutics Program at https://dtp.cancer.gov/organization/dscb/obtaining/available plates.htm. […] The stock solutions were prepared in dimethyl sulfoxide (DMSO, Sigma-Aldrich, St. Louis, MO, cat. D2650), except for the platinum compounds which were prepared in saline (Quality Biological, Gaithersburg, MD, cat. 114-055-101), at 800-fold the tested concentration and stored at -70 degrees C prior to their use. All drugs and investigational agents were tested over a range starting from a high concentration at or near the clinical Cmax and decreasing in half-log increments. If the clinical Cmax for an agent had not been determined, the highest concentration tested was 10 microM (Table 1).
Cell Culture. All cells were maintained in an incubator at 37 degrees C and 5% CO2 with 95% humidity. The PDC lines were cultured according to standard operating procedures established by the NCI PDMR (https://pdmr.cancer.gov). Briefly, all PDCs were thawed and cultured in Matrigel-coated flasks prepared with a working solution of 1X Ham's F-12 nutrient mix, without supplementation (Invitrogen, Waltham, MA, cat. 11765054), 100 U/mL penicillin-streptomycin (Invitrogen, cat. 15140122), and 2.5% Matrigel (Corning Inc., Corning, NY, cat. 354248) for the first three passages. All PDCs were cultured in complete DMEM/F-12 media containing advanced DMEM/F-12 (Invitrogen, cat. 12634028), 4.9% defined fetal bovine serum, heat inactivated (HyClone Laboratories Inc., Logan, UT, cat. SH30070.03HI), 389 ng/mL hydrocortisone (Sigma-Aldrich, cat. H4001), 9.7 ng/mL human EGF recombinant protein (Invitrogen, cat. PHG0313), 23.4 microg/mL adenine (Sigma-Aldrich, cat. A2786), 97.3 U/mL penicillin-streptomycin (Invitrogen, cat. 15140122), 1.9 mM L-glutamine (Invitrogen, cat. 25030081), and 9.7 microM Y-27632 dihydrochloride (Tocris Bioscience, Bristol, United Kingdom, cat. 1254). The PDCs were cultured in complete DMEM/F12 media without 10 microM Y-27632 dihydrochloride for at least two passages prior to the screen. The established cell lines NCI-H1341 and […] were cultured in DMEM/F-12, HEPES (Invitrogen, cat. 11330032), 5% defined fetal bovine serum (HyClone Laboratories Inc., cat. SH30070.03), ITS premix universal culture supplement [insulin (5 microg/mL), transferrin (5 microg/mL), and selenious acid (5 ng/mL)] […]

[1] = curve of first compound, second compound 0.1 µM
[2] = curve of first compound, second compound 0.316 µM
[3] = curve of first compound, second compound 1 µM
[4] = curve of first compound, second compound 3.16 µM
[5] = curve of first compound, second compound 10 µM
[6] = second compound 0.1 µM, first compound 0.0316 µM
[7] = second compound 0.1 µM, first compound 0.1 µM
[8] = second compound 0.1 µM, first compound 0.316 µM
[9] = second compound 0.1 µM, first compound 1 µM
[10] = second compound 0.1 µM, first compound 3.16 µM
[11] = second compound 0.1 µM, first compound 10 µM
[12] = second compound 0.316 µM, first compound 0.0316 µM
[13] = second compound 0.316 µM, first compound 0.1 µM
[14] = second compound 0.316 µM, first compound 0.316 µM
[15] = second compound 0.316 µM, first compound 1 µM
[16] = second compound 0.316 µM, first compound 3.16 µM
[17] = second compound 0.316 µM, first compound 10 µM
[18] = second compound 1 µM, first compound 0.0316 µM
[19] = second compound 1 µM, first compound 0.1 µM
[20] = second compound 1 µM, first compound 0.316 µM
[21] = second compound 1 µM, first compound 1 µM
[22] = second compound 1 µM, first compound 3.16 µM
[23] = second compound 1 µM, first compound 10 µM
[24] = second compound 3.16 µM, first compound 0.0316 µM
[25] = second compound 3.16 µM, first compound 0.1 µM
[26] = second compound 3.16 µM, first compound 0.316 µM
[27] = second compound 3.16 µM, first compound 1 µM
[28] = second compound 3.16 µM, first compound 3.16 µM
[29] = second compound 3.16 µM, first compound 10 µM
[30] = second compound 10 µM, first compound 0.0316 µM
[31] = second compound 10 µM, first compound 0.1 µM
[32] = second compound 10 µM, first compound 0.316 µM
[33] = second compound 10 µM, first compound 1 µM
[34] = second compound 10 µM, first compound 3.16 µM
[35] = second compound 10 µM, first compound 10 µM

O=C(C=Cc1cccc(S(=O)(=O)Nc2ccccc2)c1)NO
inactive: viability, T/C (compound 0.0316 µM) 96.9% and 99.7% and 91.8% | viability, T/C (compound 0.1 µM) 97.1% and 90.4% and 87.2% | viability, T/C (compound 0.316 µM) 77.8% and 90.1% and 67.2% | viability, T/C (compound 1 µM) 56.2% and 65.4% and 52.6% | viability, T/C (compound 3.16 µM) 45.1% and 51.9% and 33.4%
16.7% and 20.2% and 6.75%: viability, T/C (compound 10 µM)
1870 nM and 3100 nM and 1180 nM: IC50 (curve of compound)

CC1(C)CCC(CN2CCN(c3ccc(C(=O)NS(=O)(=O)c4ccc(NCC5CCOCC5)c([N+](=O)[O-])c4)c(Oc4cnc5[nH]ccc5c4)c3)CC2)=C(c2ccc(Cl)cc2)C1 + Cc1cncc(-c2nc(NCCc3c[nH]c4ccccc34)c3ncn(C(C)C)c3n2)c1
inactive: viability, T/C [6] 88.5% | viability, T/C [7] 90% | viability, T/C [8] 85.3% | viability, T/C [9] 78.6% | viability, T/C [10] 72.3% | viability, T/C [11] 26% | viability, T/C [12] 89.2% | viability, T/C [13] 92.2% | viability, T/C [14] 95.1% | viability, T/C [15] 78.3% | viability, T/C [16] 71% | viability, T/C [17] 26.6% | viability, T/C [18] 84.7% | viability, T/C [19] 90.3% | viability, T/C [20] 87% | viability, T/C [21] 73.5% | viability, T/C [22] 66.9% | viability, T/C [23] 28.3% | viability, T/C [24] 43.6% | viability, T/C [25] 43.4% | viability, T/C [26] 48.5% | viability, T/C [27] 40.9% | viability, T/C [28] 39.6% | viability, T/C [29] 24.5%
5030 nM: IC50 [3]
5370 nM: IC50 [1]
5320 nM: IC50 [2]
< 31.6 nM: IC50 [4] | IC50 [5]
active: viability, T/C [30] 2.24% | viability, T/C [31] 2.27% | viability, T/C [32] 3.12% | viability, T/C [33] 4.57% | viability, T/C [34] 3.12% | viability, T/C [35] 5.62%

COc1cccc2c1C(=O)c1c(O)c3c(c(O)c1C2=O)CC(O)(C(=O)CO)CC3OC1CC(N)C(O)C(C)O1 (centres undefined) + Cc1cncc(-c2nc(NCCc3c[nH]c4ccccc34)c3ncn(C(C)C)c3n2)c1
175 nM: IC50 [3]
< 31.6 nM: IC50 [4] | IC50 [5]
266 nM: IC50 [1]
380 nM: IC50 [2]
active: viability, T/C [10] 1.26% | viability, T/C [11] 0.76% | viability, T/C [16] 1.1% | viability, T/C [17] 0.72% | viability, T/C [22] 1.14% | viability, T/C [23] 0.7% | viability, T/C [27] 2.21% | viability, T/C [28] 1.26% | viability, T/C [29] 0.84% | viability, T/C [30] 5.86% | viability, T/C [31] 6.1% | viability, T/C [32] 9.17% | viability, T/C [33] 0.29% | viability, T/C [34] 0.94% | viability, T/C [35] 0.55%
inactive: viability, T/C [6] 64.7% | viability, T/C [7] 57.1% | viability, T/C [8] 48.8% | viability, T/C [9] 20.3% | viability, T/C [12] 61.1% | viability, T/C [13] 65.6% | viability, T/C [14] 56.3% | viability, T/C [15] 15.4% | viability, T/C [18] 58.6% | viability, T/C [19] 55.9% | viability, T/C [20] 43.1% | viability, T/C [21] 10.3% | viability, T/C [24] 48.8% | viability, T/C [25] 50.7% | viability, T/C [26] 37.7%

COc1ccc([C@@H](O)c2cc(-c3ncnc4cc(N5CCOCC5)ccc34)c(F)cc2Cl)nn1
654 nM and 887 nM and 508 nM: IC50 (curve of compound)
12.3% and 7.92% and 9.02%: viability, T/C (compound 10 µM)
inactive: viability, T/C (compound 0.0316 µM) 96.5% and 95.1% and 98.9% | viability, T/C (compound 0.1 µM) 92% and 80.4% and 92.3% | viability, T/C (compound 0.316 µM) 64.8% and 60.7% and 62% | viability, T/C (compound 1 µM) 40.2% and 59.5% and 30.9% | viability, T/C (compound 3.16 µM) 23.1% and 19.5% and 17.6%

CCc1c2c(nc3ccc(O)cc13)-c1cc3c(c(=O)n1C2)COC(=O)[C@]3(O)CC + CC(CO)NC(=O)c1cc(-c2ccc(Cl)cc2)nn(-c2cnn(C)c2)c1=O
19.2 nM: IC50 [1]
19 nM: IC50 [3]
16 nM: IC50 [2] | IC50 [4]
inactive: viability, T/C (second compound 0.1 µM, first compound 0.000949 µM) 77.1% | viability, T/C (second compound 0.1 µM, first compound 0.003 µM) 77.9% | viability, T/C (second compound 0.1 µM, first compound 0.00949 µM) 61.7% | viability, T/C (second compound 0.1 µM, first compound 0.03 µM) 42.4% | viability, T/C (second compound 0.1 µM, first compound 0.0949 µM) 37.3% | viability, T/C (second compound 0.1 µM, first compound 0.3 µM) 33.1% | viability, T/C (second compound 0.316 µM, first compound 0.000949 µM) 70.8% | viability, T/C (second compound 0.316 µM, first compound 0.003 µM) 70.9% | viability, T/C (second compound 0.316 µM, first compound 0.00949 µM) 57.8% | viability, T/C (second compound 0.316 µM, first compound 0.03 µM) 40.7% | viability, T/C (second compound 0.316 µM, first compound 0.0949 µM) 36.4% | viability, T/C (second compound 0.316 µM, first compound 0.3 µM) 36.7% | viability, T/C (second compound 1 µM, first compound 0.000949 µM) 69.8% | viability, T/C (second compound 1 µM, first compound 0.003 µM) 72.3% | viability, T/C (second compound 1 µM, first compound 0.00949 µM) 62.6% | viability, T/C (second compound 1 µM, first compound 0.03 µM) 41.6% | viability, T/C (second compound 1 µM, first compound 0.0949 µM) 35.5% | viability, T/C (second compound 1 µM, first compound 0.3 µM) 34.1% | viability, T/C (second compound 3.16 µM, first compound 0.000949 µM) 58.8% | viability, T/C (second compound 3.16 µM, first compound 0.003 µM) 63.1% | viability, T/C (second compound 3.16 µM, first compound 0.00949 µM) 58.3% | viability, T/C (second compound 3.16 µM, first compound 0.03 µM) 39.8% | viability, T/C (second compound 3.16 µM, first compound 0.0949 µM) 30.5% | viability, T/C (second compound 3.16 µM, first compound 0.3 µM) 33.8% | viability, T/C (second compound 10 µM, first compound 0.000949 µM) 51.2% | viability, T/C (second compound 10 µM, first compound 0.003 µM) 53.3% | viability, T/C (second compound 10 µM, first compound 0.00949 µM) 46.6% | viability, T/C (second compound 10 µM, first compound 0.03 µM) 36.4% | viability, T/C (second compound 10 µM, first compound 0.0949 µM) 29.3% | viability, T/C (second compound 10 µM, first compound 0.3 µM) 31.8%
4.73 nM: IC50 [5]
